From patent US12404241B2 (Celgene Corporation, priority 2018, dated 2025)
Counter-ions that a name gives are not always drawn.

Target: T1, AR (Homo sapiens, UniProt P10275)
T1 construct: endogenous in cells; host or cells: VCaP cells
T1 sequence (P10275 1-920): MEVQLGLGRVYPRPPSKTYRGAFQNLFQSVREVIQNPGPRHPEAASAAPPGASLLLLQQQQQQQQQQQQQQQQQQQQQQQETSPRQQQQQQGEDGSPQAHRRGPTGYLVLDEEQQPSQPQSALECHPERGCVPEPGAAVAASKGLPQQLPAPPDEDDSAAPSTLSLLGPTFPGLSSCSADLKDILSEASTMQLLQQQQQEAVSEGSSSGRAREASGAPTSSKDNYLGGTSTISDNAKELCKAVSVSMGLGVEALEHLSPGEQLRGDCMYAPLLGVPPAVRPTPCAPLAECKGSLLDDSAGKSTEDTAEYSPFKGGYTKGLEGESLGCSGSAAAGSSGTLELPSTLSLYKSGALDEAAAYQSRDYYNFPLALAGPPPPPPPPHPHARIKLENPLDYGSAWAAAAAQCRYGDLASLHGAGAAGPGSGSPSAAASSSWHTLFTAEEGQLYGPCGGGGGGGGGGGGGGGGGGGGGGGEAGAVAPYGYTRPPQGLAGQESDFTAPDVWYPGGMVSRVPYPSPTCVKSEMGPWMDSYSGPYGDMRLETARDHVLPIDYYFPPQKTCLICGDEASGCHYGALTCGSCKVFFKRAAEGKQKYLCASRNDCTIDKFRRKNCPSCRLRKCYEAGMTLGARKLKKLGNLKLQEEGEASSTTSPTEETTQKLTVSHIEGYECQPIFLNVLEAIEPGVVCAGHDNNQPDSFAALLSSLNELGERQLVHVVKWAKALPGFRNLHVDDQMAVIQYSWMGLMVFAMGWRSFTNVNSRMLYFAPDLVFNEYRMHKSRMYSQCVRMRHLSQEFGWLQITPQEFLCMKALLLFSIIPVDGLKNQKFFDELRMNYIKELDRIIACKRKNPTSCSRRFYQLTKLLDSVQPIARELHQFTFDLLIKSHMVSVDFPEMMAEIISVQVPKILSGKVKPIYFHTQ
Experiment: VCAP AR Degradation Assay
Assay type: cell-based
Settings: for Y (AR degradation efficiency, % of DMSO control): class symbols *; for DC50: class symbols A-C, read-out: DC50
Method: VCAP AR Degradation Assay. Test compounds were pre-dispensed into a Corning CellBind 96-well clear bottom plate (Cat #3300) using an acoustic dispenser to make a 10-point concentration series at 1:3 dilution for each compound. The final top concentration of each compound was 5 μM. DMSO at a final concentration of 0.1% was used as a control. VCaP cells cultured in DMEM with 8% fetal bovine serum (FBS) were seeded at 50K cells per well in a 200 μL volume into the compound plate and incubated at 37° C. in a CO2 incubator for 24 h. The medium was carefully removed from the cells and the plate was placed on ice. One hundred μL of ice-cold 1x cell lysis buffer from Cell Signaling Technologies (Cat #9803) was added to each well of the cells and the plate was incubated at 4° C. on a shaker for 1 h. Fifteen μL of cell lysate was used for AR ELISA detection using a PathScan Total Sandwich AR ELISA kit (Cell Signaling Technology, Cat #12580). AR levels in compound-treated wells were normalized to that of DMSO control and expressed as percent of control (PoC) (y). A Four Parameter Logistic Model (Sigmoidal Dose-Response Model) was used to determine the compound's DC50, and EC50, using the following equation:
[formula] • A=YMin (lowest AR level normalized to DMSO control in response to compound treatment, as determined by curve fit) • B=YMax (maximum AR level as determined by curve fit) • C=EC50 • D=Hill Slope • x=compound concentration • EC50=the concentration of compound when y=(YMax−YMin)/2 • DC50=the concentration of the compound when y=50% of DMSO control (50% AR degradation) • y=AR protein level normalized to DMSO control
The lowest measured AR level normalized to DMSO control in response to compound treatment, termed Y value, was used to characterize the compound-mediated AR degradation efficiency.

Y (AR degradation efficiency, % of DMSO control) | DC50 [nM] | Compound
* (0<Y<=25%) | < 100 | CCc1cc(N2C(=S)N(c3cnc(C#N)c(C(F)(F)F)c3)C(=O)C2(C)C)ccc1OCCN1CCN(CC(=O)Nc2cccc(NC3CCC(=O)NC3=O)c2)C2(CC2)C1 (stereo not shown) [Example 99, 2-(7-(2-(4-(3-(6-cyano-5-(trifluoromethyl)pyridin-3-yl)-5,5-dimethyl-4-oxo-2-thioxoimidazolidin-1-yl)-2-ethylphenoxy)ethyl)-4,7-diazaspiro[2.5]octan-4-yl)-N-(3-(2,6-dioxopiperidin-3-ylamino)phenyl)acetamide]
* (0<Y<=25%) | < 100 | CCc1cc(N2C(=S)N(c3cnc(C#N)c(C(F)(F)F)c3)C(=O)C23CCC3)ccc1OCCN1CCN(CC(=O)Nc2cc(Cl)cc(NC3CCC(=O)NC3=O)c2)CC1 (stereo not shown) [Example 85, N-(3-chloro-5-(2,6-dioxopiperidin-3-ylamino)phenyl)-2-(4-(2-(4-(7-(6-cyano-5-(trifluoromethyl)pyridin-3-yl)-8-oxo-6-thioxo-5,7-diazaspiro[3.4]octan-5-yl)-2-ethylphenoxy)ethyl)piperazin-1-yl)acetamide]
** (25%<Y<=35%) | 100 to 500 | CC(C)c1cc(N2C(=S)N(c3cnc(C#N)c(C(F)(F)F)c3)C(=O)C23CCC3)ccc1OCCN1C[C@@H](C)N(CC(=O)Nc2cc(NC3CCC(=O)NC3=O)ccc2F)[C@@H](C)C1 (stereo partly drawn) [Example 209, 2-((2S,6R)-4-(2-(4-(7-(6-cyano-5-(trifluoromethyl)pyridin-3-yl)-8-oxo-6-thioxo-5,7-diazaspiro[3.4]octan-5-yl)-2-isopropylphenoxy)ethyl)-2,6-dimethylpiperazin-1-yl)-N-(5-(2,6-dioxopiperidin-3-ylamino)-2-fluorophenyl)acetamide]
* (0<Y<=25%) | < 100 | CCc1cc(N2C(=S)N(c3cnc(C#N)c(C(F)(F)F)c3)C(=O)C23CCC3)ccc1OCCN1CCN(CC(=O)Nc2cc(F)cc(NC3CCC(=O)NC3=O)c2)[C@H](C)C1 (stereo partly drawn) [Example 107, 2-((R)-4-(2-(4-(7-(6-cyano-5-(trifluoromethyl)pyridin-3-yl)-8-oxo-6-thioxo-5,7-diazaspiro[3.4]octan-5-yl)-2-ethylphenoxy)ethyl)-2-methylpiperazin-1-yl)-N-(3-(2,6-dioxopiperidin-3-ylamino)-5-fluorophenyl)acetamide]
* (0<Y<=25%) | < 100 | CC1(C)C(=O)N(c2cnc(C#N)c(C(F)(F)F)c2)C(=S)N1c1ccc(OCCN2CCN(CC(=O)Nc3cccc(NC4CCC(=O)NC4=O)c3)[C@H](C(F)(F)F)C2)c(C2CC2)c1 (stereo partly drawn) [Example 233, 2-((S)-4-(2-(4-(3-(6-cyano-5-(trifluoromethyl)pyridin-3-yl)-5,5-dimethyl-4-oxo-2-thioxoimidazolidin-1-yl)-2-cyclopropylphenoxy)ethyl)-2-(trifluoromethyl)piperazin-1-yl)-N-(3-(2,6-dioxopiperidin-3-ylamino)phenyl)acetamide]
* (0<Y<=25%) | < 100 | C[C@@H]1CN(CCOc2ccc(N3C(=S)N(c4cnc(C#N)c(C(F)(F)F)c4)C(=O)C34CCC4)cc2C2CC2)C[C@H](C)N1CC(=O)Nc1cc(F)cc(NC2CCC(=O)NC2=O)c1 (stereo partly drawn) [Example 218, 2-((2S,6R)-4-(2-(4-(7-(6-cyano-5-(trifluoromethyl)pyridin-3-yl)-8-oxo-6-thioxo-5,7-diazaspiro[3.4]octan-5-yl)-2-cyclopropylphenoxy)ethyl)-2,6-dimethylpiperazin-1-yl)-N-(3-(2,6-dioxopiperidin-3-ylamino)-5-fluorophenyl)acetamide]
* (0<Y<=25%) | < 100 | CCc1cc(N2C(=S)N(c3cnc(C#N)c(C(F)(F)F)c3)C(=O)C2(C)C)ccc1OCCN1CCN(CC(=O)Nc2cc(F)cc(NC3CCC(=O)NC3=O)c2)CC1 (stereo not shown) [Example 63, 2-(4-(2-(4-(3-(6-cyano-5-(trifluoromethyl)pyridin-3-yl)-5,5-dimethyl-4-oxo-2-thioxoimidazolidin-1-yl)-2-ethylphenoxy)ethyl)piperazin-1-yl)-N-(3-(2,6-dioxopiperidin-3-ylamino)-5-fluorophenyl)acetamide]

The remaining lines, values behind:

Compound | Y (AR degradation efficiency, % of DMSO control) | DC50 [nM]
CC(C)c1cc(N2C(=S)N(c3ccc(C#N)c(Cl)c3)C(=O)C2(C)C)ccc1OCCN1C[C@@H](C)N(CC(=O)Nc2cc(Cl)cc(NC3CCC(=O)NC3=O)c2)[C@@H](C)C1 (stereo partly drawn) [Example 223, 2-((2S,6R)-4-(2-(4-(3-(3-chloro-4-cyanophenyl)-5,5-dimethyl-4-oxo-2-thioxoimidazolidin-1-yl)-2-isopropylphenoxy)ethyl)-2,6-dimethylpiperazin-1-yl)-N-(3-chloro-5-(2,6-dioxopiperidin-3-ylamino)phenyl)acetamide] | ** (25%<Y<=35%) | 100 to 500
N#Cc1ncc(N2C(=O)C3(CCC3)N(c3ccc(OCCN4CCN(CC(=O)Nc5cccc(NC6CCC(=O)NC6=O)c5)CC4)c(F)c3)C2=S)cc1C(F)(F)F (stereo not shown) [Example 6] | ** (25%<Y<=35%) | < 100
CCc1cc(N2C(=S)N(c3ccc(C#N)c(C(F)(F)F)c3)C(=O)C2(C)C)ccc1OCCN1C[C@H](C)N(CC(=O)Nc2cccc(NC3CCC(=O)NC3=O)c2)C[C@@H]1C (stereo partly drawn) [Example 125, 2-((2S,5S)-4-(2-(4-(3-(4-cyano-3-(trifluoromethyl)phenyl)-5,5-dimethyl-4-oxo-2-thioxoimidazolidin-1-yl)-2-ethylphenoxy)ethyl)-2,5-dimethylpiperazin-1-yl)-N-(3-(2,6-dioxopiperidin-3-ylamino)phenyl)acetamide] | * (0<Y<=25%) | 100 to 500
CCc1cc(N2C(=S)N(c3ccc(C#N)c(C(F)(F)F)c3)C(=O)C2(C)C)ccc1OCCN1C[C@@H](C)N(CC(=O)Nc2cccc(N[C@@H]3CCC(=O)NC3=O)c2)[C@@H](C)C1 [Example 286, 2-((2R,6S)-4-(2-(4-(3-(4-cyano-3-(trifluoromethyl)phenyl)-5,5-dimethyl-4-oxo-2-thioxoimidazolidin-1-yl)-2-ethylphenoxy)ethyl)-2,6-dimethylpiperazin-1-yl)-N-(3-((R)-2,6-dioxopiperidin-3-ylamino)phenyl)acetamide] | * (0<Y<=25%) | < 100
CCc1cc(N2C(=S)N(c3ccc(C#N)c(C(F)(F)F)c3)C(=O)C2(C)C)ccc1OCCN1CCN(CC(=O)Nc2cc(Cl)cc(NC3CCC(=O)NC3=O)c2)C2(CC2)C1 (stereo not shown) [Example 101, N-(3-chloro-5-(2,6-dioxopiperidin-3-ylamino)phenyl)-2-(7-(2-(4-(3-(4-cyano-3-(trifluoromethyl)phenyl)-5,5-dimethyl-4-oxo-2-thioxoimidazolidin-1-yl)-2-ethylphenoxy)ethyl)-4,7-diazaspiro[2.5]octan-4-yl)acetamide] | * (0<Y<=25%) | < 100
CC1(C)C(=O)N(c2ccc(C#N)c(C(F)(F)F)c2)C(=S)N1c1ccc(OCCN2CCN(CC(=O)Nc3cccc(NC4CCC(=O)NC4=O)c3)CC2)c(Cl)c1 (stereo not shown) [Example 3, hydrochloride] | * (0<Y<=25%) | < 100
CCc1cc(N2C(=S)N(c3ccc(C#N)c(C(F)(F)F)c3)C(=O)C2(C)C)ccc1OCCN1CCN(CC(=O)Nc2cccc(NC3CCC(=O)NC3=O)c2Cl)CC1 (stereo not shown) [Example 35, hydrochloride] | ** (25%<Y<=35%) | 100 to 500
